Results: publication PMC8968952, “Modulation of ERCC1-XPF Heterodimerization Inhibition via Structural Modification of Small Molecule Inhibitor Side-Chains” (Frontiers in Oncology, 2022)

Experiments:
[1] = test system: HCT-116 cells; assay: Cellular repair of cyclobutane pyrimidine dimers (cellular NER) after UVC; format: cell-based, human; conditions: 2 μM
Experimental: We followed the protocol of Mirzayans et al. ([79]) with minor modifications as previously described ([70]). Inhibitor compounds were dissolved in DMSO and applied to a final DMSO concentration of 0.2% in media and 0.2% DMSO was used as the vehicle control. Mouse anti-thymine dimer monoclonal antibody (cat. no. MC-062, Kamiya Biomedical Company, Seattle, WA) was used for the immunofluorescence following UVC irradiation of the cells and fluorescent microscopic evaluation and measurement of fluorescence intensity were performed using MetaXpress, version 6.2.1.704, software (Molecular Devices, Sunnyvale, California). Data were plotted using GraphPad Prism version 5.04 software.
Immunofluorescent detection of cyclobutane pyrimidine dimers (CPD) generated in the DNA of HCT-116 cells after exposure to UVC radiation was used to measure NER. Our observations that approximately 80% of CPD were removed 24 hours post irradiation in the absence of any inhibitors mirrors previous observations ([70], [79]).

[2] = test system: HCT-116 cells; assay: Cytotoxicity assay using colony forming assay; format: cell-based, human; conditions: 0.5 μM
Experimental: HCT-116 cells were incubated with media containing a non-toxic concentration of 6 or 10 ( Supplementary Figure 3 ) prior to exposure to the DNA damaging agents. […]
nitrocellulose. Proteins were visualized using ERCC1 (A73368-100, 1:1000; EpiGentek), XPF (LS- […]
primary antibodies followed by secondary anti-mouse or anti-rabbit secondary HRP-conjugated secondary antibodies. ECL chemiluminescent substrate (Promega) was used to detect the proteins.
Supplementary Figure 3. Cytotoxicity assay using colony forming assay
4 HCT-116 Derived XPF Knockout Cells
For CRISPR deletion of XPF from HCT-116 cells, the pSpCas9(BB)-2A-GFP (pX458) vector (Addgene plasmid # 48138) was used. The short guide sequence to target XPF exon one was: 5'- […]
- 3' and target XPF exon eight was: 5'-
-3'. All short guide sequences oligonucleotides were synthesized, annealed and cloned into pX458 vector and were confirmed by DNA sequencing at DNA laboratory, University of Calgary. The DNA plasmid (pX458 containing XPF short guide RNA sequence, 5 µg) was transfected into HCT-116 cells using Lipofectamine 2000 (Invitrogen) according to the manufacturer’s instructions. Forty-eight hours after transfection, cells were harvested and genomic DNA was isolated using the KAPA Express Extract Kit (Kapa Biosystems) according to the manufacturer’s instructions. […]

[3] = Metabolic stability in human liver microsomes; format: in vitro ADME
Experimental: (§1) The ADME (absorption, distribution, metabolism, and excretion) profile of our lead compound 6 was determined by standard protocols carried out by WuXi AppTec (Shanghai) Co (https://www.wuxiapptec.com/). The following tests were conducted: distribution coefficient (log D at pH 7.4), aqueous solubility (Kinetic), metabolic stability in human liver microsomes and cryopreserved human hepatocytes, bidirectional permeability in Caco-2 cells, serum protein binding, and cytochrome P450 (CYP) inhibition (CYP1A2, CYP2C9, CYP2C19, CYP2D6, and CYP3A4-M).

[4] = target: T1, CYP1A2 (Homo sapiens, UniProt P05177); assay: Cytochrome P450 inhibition, CYP1A2; format: in vitro ADME
T1 sequence (P05177 1-516): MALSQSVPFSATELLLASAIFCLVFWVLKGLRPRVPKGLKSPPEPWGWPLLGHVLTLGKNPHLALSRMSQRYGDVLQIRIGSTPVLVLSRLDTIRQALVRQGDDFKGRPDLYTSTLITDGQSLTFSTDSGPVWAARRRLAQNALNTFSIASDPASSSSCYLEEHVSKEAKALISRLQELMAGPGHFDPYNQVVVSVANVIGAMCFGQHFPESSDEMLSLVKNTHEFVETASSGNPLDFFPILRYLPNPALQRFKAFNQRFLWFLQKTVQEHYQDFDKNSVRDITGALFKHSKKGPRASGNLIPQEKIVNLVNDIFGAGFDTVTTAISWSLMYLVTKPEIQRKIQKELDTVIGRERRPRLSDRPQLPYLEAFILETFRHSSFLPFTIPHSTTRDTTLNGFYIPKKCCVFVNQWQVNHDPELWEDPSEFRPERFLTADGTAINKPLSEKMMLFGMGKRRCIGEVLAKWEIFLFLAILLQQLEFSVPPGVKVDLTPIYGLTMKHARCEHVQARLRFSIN
Experimental: as §1

[5] = target: CYP2C9 (Homo sapiens, UniProt P11712); assay: Cytochrome P450 inhibition, CYP2C9; format: in vitro ADME
Chain of CYP2C9 (P11712 whole entry): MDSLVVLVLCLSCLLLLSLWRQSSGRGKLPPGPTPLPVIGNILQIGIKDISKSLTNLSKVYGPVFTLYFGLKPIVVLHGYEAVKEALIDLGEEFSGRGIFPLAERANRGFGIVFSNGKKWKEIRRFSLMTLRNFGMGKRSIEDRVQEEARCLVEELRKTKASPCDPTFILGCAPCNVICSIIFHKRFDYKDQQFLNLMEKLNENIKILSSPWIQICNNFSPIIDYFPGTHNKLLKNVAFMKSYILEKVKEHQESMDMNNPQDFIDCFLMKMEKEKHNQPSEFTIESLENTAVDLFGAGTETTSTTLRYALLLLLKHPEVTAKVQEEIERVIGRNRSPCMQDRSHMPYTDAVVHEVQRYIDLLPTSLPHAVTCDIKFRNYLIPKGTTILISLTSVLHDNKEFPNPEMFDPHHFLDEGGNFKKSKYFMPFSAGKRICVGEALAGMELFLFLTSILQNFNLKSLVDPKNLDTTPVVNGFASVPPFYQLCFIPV
Experimental: as §1

[6] = target: CYP3A4-M (Homo sapiens, UniProt P08684); assay: Cytochrome P450 inhibition, CYP3A4-M; format: in vitro ADME
Chain of CYP3A4-M (P08684 whole entry): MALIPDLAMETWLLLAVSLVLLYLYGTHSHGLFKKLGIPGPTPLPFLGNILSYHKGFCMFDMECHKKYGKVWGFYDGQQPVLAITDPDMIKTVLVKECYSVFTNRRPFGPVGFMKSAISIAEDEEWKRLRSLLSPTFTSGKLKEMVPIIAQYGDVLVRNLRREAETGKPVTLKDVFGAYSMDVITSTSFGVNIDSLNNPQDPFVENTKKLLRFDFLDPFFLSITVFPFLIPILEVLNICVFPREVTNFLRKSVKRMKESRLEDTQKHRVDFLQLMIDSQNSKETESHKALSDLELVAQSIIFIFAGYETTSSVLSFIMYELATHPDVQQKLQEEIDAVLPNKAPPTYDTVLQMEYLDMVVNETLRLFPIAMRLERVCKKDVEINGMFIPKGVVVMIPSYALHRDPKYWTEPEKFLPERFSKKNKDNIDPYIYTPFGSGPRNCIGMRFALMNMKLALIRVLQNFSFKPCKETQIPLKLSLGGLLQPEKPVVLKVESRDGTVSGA
Experimental: as §1

SMILES: COc1ccc2nc3cc(Cl)ccc3c(Nc3ccc(O)c(CN4CCN(CCN(C(C)C)C(C)C)CC4)c3)c2c1 [Compound 6]
- effect on CPD removal / cellular NER (in words) [1]: significant inhibition of NER
- toxicity of the concentration used (in words) [2]: non-toxic
- metabolic stability grade, liver microsome assay (in words) [3]: low to moderate metabolic stability
- CLint scaled ([3]; human, liver microsomes, read-out: Metabolic stability in human liver microsomes (clearance)): 376 mL/min/kg
- CYP1A2 inhibition grade (in words) [4]: moderate inhibitor
- IC50 [4]: 6.51 µM
- CYP2C9 inhibition grade (in words) [5]: weak inhibitor
- IC50 [5]: 33.4 µM
- CYP3A4-M inhibition grade (in words) [6]: moderate inhibitor
- IC50 [6]: 1.9 µM
